Test results from patent publication US20240270741A1 (Cogent Biosciences, Inc., priority 2023, published 2024).

The compounds below were run against FGFR2 (Homo sapiens, UniProt P21802) (assay: FGFR wild type enzyme assay (HTRF KinEASE-TK), FGFR2). Settings: Enz FGFR2 (nM).
Chain of FGFR2 (P21802 399-821 limits assumed): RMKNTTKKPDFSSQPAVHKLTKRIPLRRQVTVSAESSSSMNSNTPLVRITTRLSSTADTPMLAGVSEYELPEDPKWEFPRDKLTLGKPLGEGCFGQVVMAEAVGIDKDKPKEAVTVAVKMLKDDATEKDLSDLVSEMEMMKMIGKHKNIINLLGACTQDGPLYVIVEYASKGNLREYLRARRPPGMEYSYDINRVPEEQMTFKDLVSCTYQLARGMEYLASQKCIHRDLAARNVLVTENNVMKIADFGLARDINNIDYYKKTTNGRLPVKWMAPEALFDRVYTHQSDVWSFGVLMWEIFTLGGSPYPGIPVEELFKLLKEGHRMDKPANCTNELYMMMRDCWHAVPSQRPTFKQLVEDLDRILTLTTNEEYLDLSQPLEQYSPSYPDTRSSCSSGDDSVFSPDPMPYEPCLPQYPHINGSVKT
For `Cc1c(-c2cc(Sc3ccccc3C#N)c3c(C#N)cnn3c2)cnn1[C@H]1CCNC1` [Example 122, 4-(2-cyanophenyl)sulfanyl-6-[5-methyl-1-[(3S)-pyrrolidin-3-yl]pyrazol-4-yl]pyrazolo[1,5-a]pyridine-3-carbonitrile], the IC50 was 1 nM. `Cc1c(-c2cc(Sc3ccc(Cl)cc3C#N)c3c(C#N)cnn3c2)cnn1C1CCNCC1` [Example 123, 4-(4-chloro-2-cyano-phenyl)sulfanyl-6-[5-methyl-1-(4-piperidyl)pyrazol-4-yl]pyrazolo[1,5-a]pyridine-3-carbonitrile] was tested, and the IC50 was 9 nM. `Cc1c(-c2cc(Sc3ccccc3C#N)c3c(C#N)cnn3c2)cnn1[C@H]1CC[C@@H](N(C)C)CC1` [Example 124] was tested, and the IC50 was 1 nM. In the case of `Cc1c(-c2cc(Sc3ccccc3F)c3c(C#N)cnn3c2)cnn1C1CCN(C)CC1` [Example 125], the IC50 is reported as 1 nM. For `CN1CCC[C@H]1C(=O)N1CCC(n2cc(-c3cc(Sc4ncccc4F)c4c(C#N)cnn4c3)cn2)CC1` [Example 126, 4-[(3-fluoro-2-pyridyl)sulfanyl]-6-[1-[1-[(2S)-1-methylpyrrolidine-2-carbonyl]-4-piperidyl]pyrazol-4-yl]pyrazolo[1,5-a]pyridine-3-carbonitrile], the IC50 was 1 nM. `CN1CCC[C@@H]1C(=O)N1CCC(n2cc(-c3cc(Sc4ncccc4F)c4c(C#N)cnn4c3)cn2)CC1` [Example 127, 4-[(3-fluoro-2-pyridyl)sulfanyl]-6-[1-[1-[(2R)-1-methylpyrrolidine-2-carbonyl]-4-piperidyl]pyrazol-4-yl]pyrazolo[1,5-a]pyridine-3-carbonitrile] was tested, and the IC50 was 1 nM. With `Cc1ccc(Sc2cc(-c3cnn(C4CCNCC4)c3C)cn3ncc(C#N)c23)nc1C` [Example 129] the IC50 was 2 nM. `Cc1c(-c2cc(Sc3cccc4c3ncn4C)c3c(C#N)cnn3c2)cnn1C1CCN(C)CC1` [Example 131, 4-(1-methylbenzimidazol-4-yl)sulfanyl-6-[5-methyl-1-(1-methyl-4-piperidyl)pyrazol-4-yl]pyrazolo[1,5-a]pyridine-3-carbonitrile] was tested, and the IC50 was 40 nM. `Cc1c(-c2cc(Sc3cccc4ncn(C)c34)c3c(C#N)cnn3c2)cnn1C1CCN(C)CC1` [Example 132, 4-(3-methylbenzimidazol-4-yl)sulfanyl-6-[5-methyl-1-(1-methyl-4-piperidyl)pyrazol-4-yl]pyrazolo[1,5-a]pyridine-3-carbonitrile] was tested, and the IC50 was 10 nM. For `Cc1c(-c2cc(Sc3cccc4c3cnn4C)c3c(C#N)cnn3c2)cnn1C1CCN(C)CC1` [Example 133, 4-(1-methylindazol-4-yl)sulfanyl-6-[5-methyl-1-(1-methyl-4-piperidyl)pyrazol-4-yl]pyrazolo[1,5-a]pyridine-3-carbonitrile], the IC50 was 6 nM. `Cc1c(-c2cc(Sc3ccccc3F)c3c(C#N)cnn3c2)cnn1[C@H]1CCCNC1` [Example 134, 4-(2-fluorophenyl)sulfanyl-6-[5-methyl-1-[(3S)-3-piperidyl]pyrazol-4-yl]pyrazolo[1,5-a]pyridine-3-carbonitrile] was tested, and the IC50 was 1 nM.

Same assay, conditions: Enz FGFR2 (nM), FGFR2 wild type enzyme
`Cc1c(-c2cc(Sc3ccc(F)cc3C#N)c3c(C#N)cnn3c2)cnn1C1CCNCC1` [Example 135, 4-4-((2-cyano-4-fluorophenyl)thio)-6-(5-methyl-1-(piperidin-4-yl)-1H-pyrazol-4-yl)pyrazolo[1,5-a]pyridine-3-carbonitrile] gave an IC50 of 1 nM. With `Cc1c(-c2cc(Sc3ccccc3F)c3c(C#N)cnn3c2)cnn1[C@@H]1CCCNC1` [Example 136, (R)-4-((2-fluorophenyl)thio)-6-(5-methyl-1-(piperidin-3-yl)-1H-pyrazol-4-yl)pyrazolo[1,5-a]pyridine-3-carbonitrile] the IC50 was 4 nM. With `Cc1c(-c2cc(Sc3c(F)cccc3C#N)c3c(C#N)cnn3c2)cnn1C1CCNCC1` [Example 137, 4-((2-cyano-6-fluorophenyl)thio)-6-(5-methyl-1-(piperidin-4-yl)-1H-pyrazol-4-yl)pyrazolo[1,5-a]pyridine-3-carbonitrile] the IC50 was 1 nM. `Cc1c(-c2cc(Sc3ccccc3C#N)c3c(C#N)cnn3c2)cnn1C1CCN(CCO)CC1` [Example 138, 4-((2-cyanophenyl)thio)-6-(1-(1-(2-hydroxyethyl)piperidin-4-yl)-5-methyl-1H-pyrazol-4-yl)pyrazolo[1,5-a]pyridine-3-carbonitrile] was tested, and the IC50 was 1 nM. With `COCCN1CCC(n2ncc(-c3cc(Sc4ccccc4C#N)c4c(C#N)cnn4c3)c2C)CC1` [Example 139, 4-((2-cyanophenyl)thio)-6-(1-(1-(2-methoxyethyl)piperidin-4-yl)-5-methyl-1H-pyrazol-4-yl)pyrazolo[1,5-a]pyridine-3-carbonitrile] the IC50 was 1 nM. Compound `CO[C@H](C)CN1CCC(n2ncc(-c3cc(Sc4ccccc4C#N)c4c(C#N)cnn4c3)c2C)CC1` [Example 140, (R)-4-((2-cyanophenyl)thio)-6-(1-(1-(2-methoxypropyl)piperidin-4-yl)-5-methyl-1H-pyrazol-4-yl)pyrazolo[1,5-a]pyridine-3-carbonitrile] has an IC50 of 1 nM. For `Cc1c(-c2cc(Sc3ccccc3C#N)c3c(C#N)cnn3c2)cnn1C1CCN(C[C@@H](C)O)CC1` [Example 141, (R)-4-((2-cyanophenyl)thio)-6-(1-(1-(2-hydroxypropyl)piperidin-4-yl)-5-methyl-1H-pyrazol-4-yl)pyrazolo[1,5-a]pyridine-3-carbonitrile], the IC50 was 1 nM. In the case of `Cc1c(-c2cc(Sc3ccccc3C#N)c3c(C#N)cnn3c2)cnn1C1CCN(C[C@H](C)O)CC1` [Example 142, (S)-4-((2-cyanophenyl)thio)-6-(1-(1-(2-hydroxypropyl)piperidin-4-yl)-5-methyl-1H-pyrazol-4-yl)pyrazolo[1,5-a]pyridine-3-carbonitrile], the IC50 is reported as 13 nM. For `Cc1c(-c2cc(Sc3ncccc3F)c3c(C#N)cnn3c2)cnn1C1CCN(C[C@@H](C)O)CC1` [Example 143, (R)-4-((3-fluoropyridin-2-yl)thio)-6-(1-(1-(2-hydroxypropyl)piperidin-4-yl)-5-methyl-1H-pyrazol-4-yl)pyrazolo[1,5-a]pyridine-3-carbonitrile], the IC50 was 2 nM. With `Cc1c(-c2cc(Sc3ncccc3F)c3c(C#N)cnn3c2)cnn1C1CCN(C[C@H](C)O)CC1` [Example 144, (S)-4-((3-fluoropyridin-2-yl)thio)-6-(1-(1-(2-hydroxypropyl)piperidin-4-yl)-5-methyl-1H-pyrazol-4-yl)pyrazolo[1,5-a]pyridine-3-carbonitrile] the IC50 was 1.5 nM. For `Cc1c(-c2cc(Sc3c(F)cc(F)cc3C#N)c3c(C#N)cnn3c2)cnn1C1CCNCC1` [Example 145, 4-((2-cyano-4,6-difluorophenyl)thio)-6-(5-methyl-1-(piperidin-4-yl)-1H-pyrazol-4-yl)pyrazolo[1,5-a]pyridine-3-carbonitrile], the IC50 was 7 nM. Work on `Cc1c(-c2cc(Sc3ncccc3F)c3c(C#N)cnn3c2)cnn1C1CCN([C@@H](C)CO)CC1` [Example 146, (S)-4-((3-fluoropyridin-2-yl)thio)-6-(1-(1-(1-hydroxypropan-2-yl)piperidin-4-yl)-5-methyl-1H-pyrazol-4-yl)pyrazolo[1,5-a]pyridine-3-carbonitrile] yielded an IC50 of 2 nM. `Cc1c(-c2cc(Sc3ncccc3F)c3c(C#N)cnn3c2)cnn1C1CCN([C@H](C)CO)CC1` [Example 147, (R)-4-((3-fluoropyridin-2-yl)thio)-6-(1-(1-(1-hydroxypropan-2-yl)piperidin-4-yl)-5-methyl-1H-pyrazol-4-yl)pyrazolo[1,5-a]pyridine-3-carbonitrile] was tested, and the IC50 was 2 nM.
